Experimental data published in PMC2972509 (Journal of medicinal chemistry, 2010).
Values joined by “and” are separate entries in the source; they are usually repeats but may differ in a detail not shown here. Equal entries are not always repeated. “Also recorded” adds a separate entry of the source.

Tests used:
[1] = Preliminary disposition studies in mice; type: in vivo; details: for Tmax: male, CD1, mouse, plasma, ip; for Maximum brain concentration (mean ± SD) / Maximum plasma concentration (mean ± SD): parent compound, 7 after 30 min, 13 after 15 min
[2] = target: T1, dopamine D4 receptor (Rattus norvegicus, UniProt P30729); experiment: Radioligand competition binding at cloned dopamine D4 receptor; details: for D4 Ki, nM ± SEM: [3H]MSP, cloned rat D4 receptor in HEK293 membranes; for Selectivity for D4 over off-target receptors: over D2, D3, 5-HT1A, 5-HT2A, 5-HT2C and sigma1 receptors
T1 sequence (P30729 1-387): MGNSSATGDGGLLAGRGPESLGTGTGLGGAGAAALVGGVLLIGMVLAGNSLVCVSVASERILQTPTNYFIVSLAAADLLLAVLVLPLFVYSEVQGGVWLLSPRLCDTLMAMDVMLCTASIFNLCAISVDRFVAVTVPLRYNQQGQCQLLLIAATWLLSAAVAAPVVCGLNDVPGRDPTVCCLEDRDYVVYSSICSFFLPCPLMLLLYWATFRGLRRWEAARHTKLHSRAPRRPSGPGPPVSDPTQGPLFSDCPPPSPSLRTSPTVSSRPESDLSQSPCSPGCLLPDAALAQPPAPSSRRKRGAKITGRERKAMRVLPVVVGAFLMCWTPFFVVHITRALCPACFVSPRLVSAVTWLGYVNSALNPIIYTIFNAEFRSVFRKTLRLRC

[3] = target: T2, cloned D4 dopamine receptor (Rattus norvegicus, UniProt P30729); experiment: D4 receptor functional assay: decrease in forskolin-stimulated cAMP accumulation; type: cell-based; details: Gi/o-mediated
T2 sequence (P30729 1-387): T1 sequence (P30729 1-387)

| Tmax ([1]; 10 mg/kg) [min] | Time up to which plasma concentrations were consistently detected ([1]; mice, 10 mg/kg i.p.) | Time up to which quantifiable brain levels were consistently evident ([1]; mice, 10 mg/kg i.p.) | Maximum brain concentration (mean ± SD) ([1]; mice, 10 mg/kg i.p.) [µg/g] | Maximum plasma concentration (mean ± SD) ([1]; mice, 10 mg/kg i.p., 10 mg/kg) | D4 Ki, nM ± SEM [2] | Selectivity for D4 over off-target receptors [2] [fold] | Fold higher D4 affinity than the 3-methoxy analog 5 [2] | Time of mean brain Cmax ([1]; mice, 10 mg/kg i.p.) [min] | Plasma concentration after 30 minutes (below limit of quantitation) ([1]; mice, 10 mg/kg i.p., 0.2 ml plasma) | Maximum plasma concentration (mean ± SD) ([1]; mice, 10 mg/kg i.p.) [µg/mL] | Structure (SMILES) | Functional property at D4 receptor [3] |
| --- | --- | --- | --- | --- | --- | --- | --- | --- | --- | --- | --- | --- |
| 30 | up to 60 minutes | up to 30 min | 0.14 ± 0.02 | 0.37 ± 0.02 µg/mL and 0.37 ± 0.21 µg/mL | nanomolar affinity | > 100 | – | – | – | – | COc1cccc(C(=O)NCCN2CCN(c3ncccc3C#N)CC2)c1 [Compound 7, N-[2-[4-(3-Cyanopyridin-2-yl)piperazin-1-yl]ethyl]-3-methoxybenzamide] | agonist properties; also recorded: agonists |
| – | – | – | – | – | subnanomolar | – | approximately 6 fold | – | – | – | O=C(NCCN1CCN(c2noc3ccccc23)CC1)c1ccc(F)cc1 [Compound 11, N-[2-[4-(1,2-Benzisoxazol-3-yl)piperazin-1-yl]ethyl]-4-fluorobenzamide] | – |

| Structure (SMILES) | Tmax ([1]; 10 mg/kg) [min] | Time up to which plasma concentrations were consistently detected ([1]; mice, 10 mg/kg i.p.) | Time up to which quantifiable brain levels were consistently evident ([1]; mice, 10 mg/kg i.p.) | Maximum brain concentration (mean ± SD) ([1]; mice, 10 mg/kg i.p.) [µg/g] | Maximum plasma concentration (mean ± SD) ([1]; mice, 10 mg/kg i.p., 10 mg/kg) | D4 Ki, nM ± SEM [2] | Selectivity for D4 over off-target receptors [2] [fold] | Fold higher D4 affinity than the 3-methoxy analog 5 [2] | Time of mean brain Cmax ([1]; mice, 10 mg/kg i.p.) [min] | Plasma concentration after 30 minutes (below limit of quantitation) ([1]; mice, 10 mg/kg i.p., 0.2 ml plasma) | Maximum plasma concentration (mean ± SD) ([1]; mice, 10 mg/kg i.p.) [µg/mL] | Functional property at D4 receptor [3] |
| --- | --- | --- | --- | --- | --- | --- | --- | --- | --- | --- | --- | --- |
| N#Cc1cccnc1N1CCN(CCNC(=O)c2ccc(F)cc2)CC1 [Compound 13, N-[2-[4-(3-Cyanopyridin-2-yl)piperazin-1-yl]ethyl]-4-fluorobenzamide] | 15 | – | up to 60 min | 0.47 ± 0.20 | – | subnanomolar; also recorded: nanomolar affinity | > 100 | – | 15 | less than 0.1 µg/mL | 0.13 ± 0.10 | agonist properties; also recorded: agonists |
